In US5681823A, “P^1, P^4 -dithio-P^2 -P^3 -monochloromethylene 5', 5'"-diadenosine P^1, P^4 -tetraphosphate as antithrombotic agent” (PRP Inc., priority 1996, dated 1997):
Where two headings read alike, the source gives them in different places.

Key:
Assay type in all cases: cell-based, human
[1] = tested on: fibrinogen receptor (GPIIb/IIIa); assay: Fibrinogen binding sites on ADP-activated platelets (FITC-anti-fgn, flow cytometer); settings: for % binding (fibrinogen bound on ADP-activated platelets): 5 μM ADP
Procedure: Platelet responses to the agonists include in addition to aggregation a) release reaction, b) fibrinogen receptor silos (GPIIb/IIIa) and, c) platelet factor 3 activation. The effects of thio-CHCl-AP4 A and the reference agent (CHCl-AP4 A, compound E10 of Zamecnik '550) were tested on each of these responses.
Platelet surface receptors for fibrinogen are known to be increased by activation. The effects of thio-CHCl-AP4 A and CHCl-AP4 A on fibrinogen binding sites of activated platelets were assayed by means of Fluorescein isothiocyanate conjugated antifibrinogen antibody (FITC-anti-fgn) techniques in a flow cytometer (FACS, Becton-Dickinson). PRP was used at 1:20 final dilution. Platelets were activated by ADP in the presence or absence of the agents at 22° C. for 5 min. After incubation of activated platelets with FITC-Anti-Fgn at 22° C. for 10 min., 0.5 ml of 0.2% formyl saline (0.2% formaldehyde in 0.9% NaCl) was added to inhibit further activation. Samples included platelets that were a) unstimulated; b) stimulated with 5 μM ADP; c) exposed to agents (CHCl-AP4 A or thio-CHCl-AP4 A) for 5 minutes before ADP stimulation.

[2] = tested on: ADP and collagen induced platelet aggregation; assay: Platelet aggregation in lumiaggregometer (ADP or collagen); settings: for IC50: Homo sapiens, Platelet, lumiaggregometer
Procedure: (§1) The effects of thio-CHCl-AP4 A and the reference agent on both ADP and collagen induced platelet aggregation, and release reaction were tested in a lumiaggregometer. Normal human PRP was separated from sodium […] anticoagulated (0.38%) blood. Platelet aggregation and release reaction induced by 5 μM ADP or 1 μg collagen/ml. The lumiaggregometer was equipped to assay both platelet aggregation and the luciferase reaction of ATP simultaneously a) in the absence of agent (control); and b) in the presence of various concentrations of thio-CHCl-AP4 A or CHCl-AP4 A. The measured amount of ATP released from the activated platelets by the agonist represents the release reaction. The luminescence produced by the luciferin-luciferase reaction was linear with respect to the amount of ATP released.

[3] = tested on: ADP-induced platelet aggregation; assay: Time-dependent effects on ADP-induced aggregation (stability of the agents by functional assay in PRP); settings: for ADP-induced aggregation: 10 μM ADP; for stability of inhibitory effect / agent in PRP: 37° C., up to 3 hours, in words
Procedure: (§2) Unless otherwise provided below, the experimental procedures were performed according to the procedures provided in U.S. Pat. No. 5,049.550 (Zamecnik '550), the entire contents of which are incorporated herein by reference. Some alternative procedures (e.g., release reaction, PF3 assays) and a number of additional studies also are provided (e.g., cytoplasmic calcium mobilization, fibrinogen binding site, agonists other than ADP, platelet cAMP and distribution of CHCl-AP4 A into blood components). Blood was collected in a 0.1 volume of 3.8% sodium citrate from healthy human volunteers who had abstained from antiplatelet agents for at least 10 days. Platelet rich plasma (PRP) was separated by a gradual centrifugation and adjusted to 3.3×10^8 platelets per ml plasma. PRP has been utilized in the Examples unless otherwise stated.
To observe the stability of the agents by functional assay, PRP was incubated with 2.51 μM thio-CHCl-AP4 A or 5 μM CHCl-AP4 A at 37° C. for 3 hours. The concentrations of inhibiting agents used in this experiment were relatively low, especially for the thio compound. Samples taken at the times indicated were tested for ADP-induced (10 μM) aggregation.

[4] = tested on: Platelet release reaction; assay: Platelet release reaction (ATP, luciferin-luciferase, lumiaggregometer); settings: for IC50: Homo sapiens, Platelet, lumiaggregometer
Procedure: as §1

[5] = tested on: ADP-induced platelet aggregability; assay: Ability to aggregate of platelets exposed previously to the agents, resuspended in inhibitor-free plasma; settings: for activity at 25 µM: preincubated 25 μM agent
Procedure: as §2
We believe that the inhibition mechanism of AP4 A analogues involves competing with ADP for binding to the platelet purinoceptor. To test the stability and inhibitory effects of the bound agent, platelet-rich plasma anticoagulated with ACD solution was preincubated with 25 μM thio-CHCl-AP4 A or 50 μM CHCl-AP4 A at 22° C. for 30 minutes. Platelets isolated by gel-column filtration (2×10^8 cells/ml) or centrifugation (3×10^8cells/ml) were resuspended in the inhibitor-free plasma and ADP-induced aggregability was measured. The values represent a mean of three experiments for the series of gel-filtration separation and a mean of two experiments for the centrifugation separation.

[6] = tested on: platelet aggregation; assay: Platelet aggregation induced by ADP and agonists other than ADP; settings: for IC50: Homo sapiens, Platelet; for effect on collagen-induced aggregation: agonist collagen, in words; for effect on ristocetin-induced platelet aggregation: agonist ristocetin; for effect on thrombin-induced platelet aggregation: agonist thrombin
Procedure: as §2
The release reaction appears to be a unique response following platelet activation. ADP, among several platelet constituents, appears to play an important role in the enhancement of activation. We have examined the role of ADP that is released in platelet aggregation induced by other agonists including arachidonic acid, collagen, epinephrine, thrombin and ristocetin. Platelet aggregability induced by a given concentration of agonists was approximately 60-80% in absence of agents. […] This finding supports the above-described observations of the inhibitory effects of the agents on the release reaction.

[7] = tested on: platelet cAMP level; assay: Level of intracellular platelet cAMP (etheno-cAMP, HPLC); settings: for platelet cAMP level: 37° C., 5 min, control 31.6; for effect on the platelet cAMP level: in words
Procedure: as §2
The inhibitory effect of cAMP on platelet aggregation has been known as a counteraction of calcium ion mobilization. Accordingly, the inhibitory effects of the agents with respect to a cAMP mediated mechanism was tested. PRP was incubated with saline (control), agents (at 20 μM and 100 μM), or forskolin (10 μM) at 37° C. for 5 min. After incubation, extracts were made using Ba(OH)2 and ZnSO4. Cyclic AMP in the extracts was converted into the etheno-cAMP derivative, and the levels were estimated by HPLC using a fluorescence detector (W. Wojcik et al., J. Cyclic Nucleotide Res. 7:27-35 (1981)). The level of cAMP in an unknown extract was determined by extrapolation from a standard graph. A linear relationship between the cAMP level in the extracted samples and fluorescence detection was observed. […] However, this increase may not be a specific effect. Although adenosine contamination in the tested AP4 A agents was not detected, it is possible that either cellular adenosine nucleotide metabolic products or contaminated adenosine in the tested agents may be responsible for the elevated cAMP level.

[8] = agonist Arachidonic Acid (1 mM)

Row | SMILES | % binding (fibrinogen bound on ADP-activated platelets) ([1]; 2.5 μM agent) [% binding] | % binding (fibrinogen bound on ADP-activated platelets) ([1]; 5.0 μM agent) [% binding] | IC50 ([2]; agonist 5 μM ADP) [µM] | IC50 ([2]; agonist collagen 1 μg/ml) [µM] | stability of inhibitory effect / agent in PRP [3] | IC50 ([4]; agonist 5 μM ADP) [µM] | IC50 ([4]; agonist collagen 1 μg/ml) [µM] | IC50 ([6]; agonist ADP (5 μM)) [µM] | IC50 [6, 8] [µM] | IC50 ([6]; agonist Collagen (μg)) [µM] | IC50 ([6]; agonist Epinephrine (10 μM)) [µM] | effect on collagen-induced aggregation [6] | effect on ristocetin-induced platelet aggregation [6] | effect on thrombin-induced platelet aggregation [6] | platelet cAMP level ([7]; 20 μM agent) [nM] | effect on the platelet cAMP level ([7]; 20 μM) | platelet cAMP level ([7]; 100 μM agent) [nM] | effect on the platelet cAMP level ([7]; 100 μM) | also measured
1 | Nc1ncnc2c1ncn2[C@@H]1O[C@H](COP(O)(=S)OP(=O)(O)C(Cl)P(=O)(O)OP(O)(=S)OC[C@H]2O[C@@H](n3cnc4c(N)ncnc43)[C@H](O)[C@@H]2O)[C@@H](O)[C@H]1O (stereo partly drawn) [Thio-CHCl-AP4 A, P^1, P^4 -dithio -P^2 -P^3 monochloromethylene 5', 5'" diadenosine P^1, P^4 -tetraphosphate] | 9.9 | 5.3 | 1.6 | 9 | very stable for at least a 3 hour period | 0.7 | 1.7 | 0.81 | 9.12 | 9 | 5.25 | detectable inhibitory effect | Neither thio-CHCl-AP4 A nor CHCl-AP4 A affected | Neither thio-CHCl-AP4 A nor CHCl-AP4 A affected | 28.6 | no effect | 54.4 | moderate increase | inhibition of fibrinogen bound on ADP-activated platelets ([1]; compared to CHCl-AP4 A, in words): inhibited preferentially; ADP-induced aggregation ([3]; 2.5 μM agent, 0 min in PRP at 37° C., without agent 82%): 21%; ADP-induced aggregation ([3]; 2.5 μM agent, 60 min in PRP at 37° C., without agent 69%): 7%; ADP-induced aggregation ([3]; 2.5 μM agent, 120 min in PRP at 37° C., without agent 59%): 5%; ADP-induced aggregation ([3]; 2.5 μM agent, 180 min in PRP at 37° C., without agent 43%): 6%; activity at 25 µM ([5]; Homo sapiens, Platelet, 0.5 h, centrifugation, 20 μM ADP, 22° C., 30 min, mean of two, read-out: Aggregability (% of control)): 67%; activity at 25 µM ([5]; Homo sapiens, Platelet, 0.5 h, gel-filtration, 10 μM ADP, 22° C., 30 min, mean of three, read-out: Aggregability (% of control)): 78%; inhibition in the ability to aggregate following exposure to ADP ([5]; preincubated 25 μM thio-CHCl-AP4 A): 22-33%
2 | Nc1ncnc2c1ncn2[C@@H]1O[C@H](COP(=O)(O)OP(=O)(O)C(Cl)P(=O)(O)OP(=O)(O)OC[C@H]2O[C@@H](n3cnc4c(N)ncnc43)[C@H](O)[C@@H]2O)[C@@H](O)[C@H]1O (stereo partly drawn) [CHCl-AP4 A] | 70.9 | 41.3 | 14 | > 100 | becomes unstable when it is kept in PRP more than 60 minutes at 37 °C | 4.5 | 35 | 3.28 | 19 | > 100 | 24 | unaffected | Neither thio-CHCl-AP4 A nor CHCl-AP4 A affected | Neither thio-CHCl-AP4 A nor CHCl-AP4 A affected | 30.6 | no effect | 56.7 | moderate increase | % binding (fibrinogen bound on ADP-activated platelets) ([1]; 7.5 μM agent): 36.1 % binding; % binding (fibrinogen bound on ADP-activated platelets) ([1]; 10 μM agent): 23.8 % binding; effect on collagen-induced aggregation ([2]; agonist collagen, in words): not inhibited; ADP-induced aggregation ([3]; 5 μM agent, 0 min in PRP at 37° C., without agent 82%): 13%; ADP-induced aggregation ([3]; 5 μM agent, 60 min in PRP at 37° C., without agent 69%): 31%; ADP-induced aggregation ([3]; 5 μM agent, 120 min in PRP at 37° C., without agent 59%): 47%; ADP-induced aggregation ([3]; 5 μM agent, 180 min in PRP at 37° C., without agent 43%): 42%; effect on collagen-induced release reaction ([4]; agonist collagen, in words): inhibited; activity at 50 µM ([5]; Homo sapiens, Platelet, 0.5 h, centrifugation, 20 μM ADP, preincubated 50 μM agent, 22° C., 30 min, mean of two, read-out: Aggregability (% of control)): 92%; inhibition in the ability to aggregate following exposure to ADP ([5]; preincubated 50 μM CHCl-AP4 A): 8%
